Here are results for 28 compounds from patent US20210395256A1, “TYROSINE KINASE INHIBITORS, COMPOSITIONS AND METHODS THERE OF” (Betta Pharmaceuticals Co., Ltd., priority 2018, published 2021).

As a reminder, the IC50 is the concentration that gives 50% inhibition.

Structures can show the parent of a compound that is named as a salt.

For one assay, the target named is TrkA kinase (Homo sapiens, UniProt P04629). Briefly: TrkA kinase assay (mobility shift assay). Format: biochemical. The note with it: class symbols; read-out: Trk A Kinase IC50. A digest of the protocol: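 Caliper mobility-shift readout of FAM-labelled peptide conversion by TrkA in 50 mM HEPES pH 7.5, 0.0015% Brij-35, with ATP; enzyme preincubated 10 min with compound (10-point dilution), reaction at 28 °C, EDTA stop. Inhibition relative to DMSO and no-enzyme controls; IC50 by four-parameter fit.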
TrkA kinase, sequence (P04629 33-796): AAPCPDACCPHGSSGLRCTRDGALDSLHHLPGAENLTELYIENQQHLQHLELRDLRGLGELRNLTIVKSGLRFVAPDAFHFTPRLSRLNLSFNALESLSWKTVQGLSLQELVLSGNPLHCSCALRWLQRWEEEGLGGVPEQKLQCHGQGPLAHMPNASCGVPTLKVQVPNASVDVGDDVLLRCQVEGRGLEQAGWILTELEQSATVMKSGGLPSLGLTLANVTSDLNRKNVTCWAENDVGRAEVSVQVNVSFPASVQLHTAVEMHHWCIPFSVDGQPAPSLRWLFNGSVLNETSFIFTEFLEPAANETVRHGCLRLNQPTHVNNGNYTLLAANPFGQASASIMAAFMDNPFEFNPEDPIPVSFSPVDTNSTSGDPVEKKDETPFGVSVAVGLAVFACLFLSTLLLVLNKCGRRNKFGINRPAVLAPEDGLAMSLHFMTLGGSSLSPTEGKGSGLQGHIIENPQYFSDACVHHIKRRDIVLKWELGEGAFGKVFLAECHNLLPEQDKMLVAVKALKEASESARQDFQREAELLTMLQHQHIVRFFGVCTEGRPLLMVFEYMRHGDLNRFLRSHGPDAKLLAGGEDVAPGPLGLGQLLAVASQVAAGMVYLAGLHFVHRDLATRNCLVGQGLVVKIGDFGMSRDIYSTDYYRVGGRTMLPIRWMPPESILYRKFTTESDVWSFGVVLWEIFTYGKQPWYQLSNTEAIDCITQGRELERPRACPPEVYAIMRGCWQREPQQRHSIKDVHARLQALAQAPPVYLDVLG
On to `Cc1cc2nc(-c3cnn4ccc(N5CCC[C@@H]5c5cc(F)ccc5F)nc34)oc2cc1OC(F)F` [Compound 179, (R)-6-(difluoromethoxy)-2-(5-(2-(2,5-difluorophenyl)pyrrolidin-1-yl)pyrazolo[1,5-a]pyrimidin-3-yl)-5-methylbenzo[d]oxazole], for which the IC50 was 0.01 to 0.05 µM.

As for `COC(=O)Oc1cc2nc(-c3cnn4ccc(N5CCC[C@@H]5c5cc(F)ccc5F)nc34)[nH]c2cc1OC(=O)OC` [Compound 115, (R)-2-(5-(2-(2,5-difluorophenyl)pyrrolidin-1-yl)pyrazolo[1,5-a]pyrimidin-3-yl)-1H-benzo[d]imidazole-5,6-diyl dimethyl bis(carbonate)], the IC50 was > 0.05 µM.

As to `Fc1ccc(F)c([C@H]2CCCN2c2ccn3ncc(-c4nc5ccc(N6CCN7CCC[C@@H]7C6)cc5s4)c3n2)c1` [Compound 63, 2-(5-((R)-2-(2,5-difluorophenyl)pyrrolidin-1-yl)pyrazolo[1,5-a]pyrimidin-3-yl)-6-((R)-hexahydropyrrolo[1,2-a]pyrazin-2(1H)-yl)benzo[d]thiazole], the IC50 is > 0.05 µM.

`Cc1ccc2nc(-c3cnn4ccc(N5CCC[C@@H]5c5cc(F)ccc5F)nc34)[nH]c2n1` [Compound 106, (R)-2-(5-(2-(2,5-difluorophenyl)pyrrolidin-1-yl)pyrazolo[1,5-a]pyrimidin-3-yl)-5-methyl-3H-imidazo[4,5-b]pyridine]: the IC50 was ≤ 0.01 µM.

`Fc1ccc(F)c([C@H]2CCCN2c2ccn3ncc(-c4nc5cc6c(cc5[nH]4)OCCOCCOCCO6)c3n2)c1` [Compound 82, (R)-2-(5-(2-(2,5-difluorophenyl)pyrrolidin-1-yl)pyrazolo[1,5-a]pyrimidin-3-yl)-6,7,9,10,12,13-hexahydro-1H-[1,4,7,10]tetraoxacyclododecino[2′,3′:4,5]benzo[1,2-d]imidazole]: the concentration for half-maximal inhibition (IC50) fell in the range of 0.01 to 0.05 µM.

Take `CC(C)[C@H](N)C(=O)N[C@H](C(=O)O[C@@H](C)c1nnc(-c2cnn3ccc(N4CCC[C@@H]4c4cc(F)ccc4F)nc23)[nH]1)C(C)C` [Compound 55, (S)-1-(5-(5-((R)-2-(2,5-difluorophenyl)pyrrolidin-1-yl)pyrazolo[1,5-a]pyrimidin-3-yl)-4H-1,2,4-triazol-3-yl)ethyl L-valylvalinate hydrochloride]: the half-inhibitory concentration (IC50) was in the range of 0.01 to 0.05 µM.

Consider `Fc1ccc(F)c([C@H]2CCCN2c2ccn3ncc(-c4nc5ccc(F)nc5[nH]4)c3n2)c1` [Compound 108, (R)-2-(5-(2-(2,5-difluorophenyl)pyrrolidin-1-yl)pyrazolo[1,5-a]pyrimidin-3-yl)-5-fluoro-3H-imidazo[4,5-b]pyridine], for which the 50% inhibitory concentration (IC50) is ≤ 0.01 µM.

Take `Cc1cc2[nH]c(-c3cnn4ccc(N5CCC[C@@H]5c5cc(F)ccc5F)nc34)nc2cc1C#N` [Compound 159, (R)-2-(5-(2-(2,5-difluorophenyl)pyrrolidin-1-yl)pyrazolo[1,5-a]pyrimidin-3-yl)-6-methyl-1H-benzo[d]imidazole-5-carbonitrile]: the half-inhibitory concentration (IC50) was ≤ 0.01 µM.

As for `COC(=O)c1cc2oc(-c3cnn4ccc(N5CCC[C@@H]5c5cc(F)ccc5F)nc34)nc2cc1OC` [Compound 178, methyl (R)-2-(5-(2-(2,5-difluorophenyl)pyrrolidin-1-yl)pyrazolo[1,5-a]pyrimidin-3-yl)-5-methoxybenzo[d]oxazole-6-carboxylate], the IC50 is ≤ 0.01 µM.

`OC1CCNC(c2nnc(-c3cnn4ccc(N5CCC[C@@H]5c5cc(F)ccc5F)nc34)[nH]2)C1` (stereo partly drawn) [Compound 35, 2-(5-(5-((R)-2-(2,5-difluorophenyl)pyrrolidin-1-yl)pyrazolo[1,5-a]pyrimidin-3-yl)-4H-1,2,4-triazol-3-yl)piperidin-4-ol]: the 50% inhibitory concentration (IC50) is 0.01 to 0.05 µM.

As for `CN(C)CCN(C)c1cc2[nH]c(-c3cnn4ccc(N5CCC[C@@H]5c5cc(F)ccc5F)nc34)nc2cc1C#N` [Compound 168, (R)-2-(5-(2-(2,5-difluorophenyl)pyrrolidin-1-yl)pyrazolo[1,5-a]pyrimidin-3-yl)-6-((2-(dimethylamino)ethyl)(methyl)amino)-1H-benzo[d]imidazole-5-carbonitrile], the IC50 is ≤ 0.01 µM.

Regarding `CCC(O)(c1nnc(-c2cnn3ccc(N4CCC[C@@H]4c4cc(F)ccc4F)nc23)[nH]1)C(F)(F)F` (stereo partly drawn) [Compound 28, 2-(5-(5-((R)-2-(2,5-difluorophenyl)pyrrolidin-1-yl)pyrazolo[1,5-a]pyrimidin-3-yl)-4H-1,2,4-triazol-3-yl)-1,1,1-trifluorobutan-2-ol], the IC50 was > 0.05 µM.

For `OCc1ccc2nc(-c3cnn4ccc(N5CCC[C@@H]5c5cc(F)ccc5F)nc34)oc2c1` [Compound 69, (R)-(2-(5-(2-(2,5-difluorophenyl)pyrrolidin-1-yl)pyrazolo[1,5-a]pyrimidin-3-yl)benzo[d]oxazol-6-yl)methanol], the half-maximal inhibitory concentration (IC50) was ≤ 0.01 µM.

Regarding `N#Cc1cc2nc(-c3cnn4ccc(N5CCC[C@@H]5c5cc(F)ccc5F)nc34)[nH]c2cc1C(N)=O` [Compound 154, (R)-5-cyano-2-(5-(2-(2,5-difluorophenyl)pyrrolidin-1-yl)pyrazolo[1,5-a]pyrimidin-3-yl)-1H-benzo[d]imidazole-6-carboxamide], the half-maximal inhibitory concentration (IC50) was ≤ 0.01 µM.

Regarding `CS(=O)(=O)c1ccc2nc(-c3cnn4ccc(N5CCC[C@@H]5c5cc(F)ccc5F)nc34)[nH]c2c1` [Compound 170, (R)-5-(2-(2,5-difluorophenyl)pyrrolidin-1-yl)-3-(6-(methylsulfonyl)-1H-benzo[d]imidazol-2-yl)pyrazolo[1,5-a]pyrimidine], the IC50 was ≤ 0.01 µM.

On to `COc1cc2[nH]c(-c3cnn4ccc(N5CCC[C@H]5c5cc(F)ccc5F)nc34)nc2cc1C#N` [Compound 197, (S)-2-(5-(2-(2,5-difluorophenyl)pyrrolidin-1-yl)pyrazolo[1,5-a]pyrimidin-3-yl)-6-methoxy-1H-benzo[d]imidazole-5-carbonitrile], for which the 50% inhibitory concentration (IC50) lay within 0.01 to 0.05 µM.

In the case of `Fc1ccc(F)c([C@H]2CCCN2c2ccn3ncc(-c4nnc(-c5ccc6cn[nH]c6c5)[nH]4)c3n2)c1` [Compound 59, (R)-3-(5-(1H-indazol-6-yl)-4H-1,2,4-triazol-3-yl)-5-(2-(2,5-difluorophenyl)pyrrolidin-1-yl)pyrazolo[1,5-a]pyrimidine], the IC50 is ≤ 0.01 µM.

As for `COc1cc2nc(-c3cnn4ccc(N5CCC[C@@H]5c5cc(F)ccc5F)nc34)[nH]c2cc1C(=O)NO` [Compound 89, (R)-2-(5-(2-(2,5-difluorophenyl)pyrrolidin-1-yl)pyrazolo[1,5-a]pyrimidin-3-yl)-N-hydroxy-5-methoxy-1H-benzo[d]imidazole-6-carboxamide], the IC50 lay in the range of 0.01 to 0.05 µM.

Consider `COc1ccc2nc(-c3cnn4ccc(N5CCC[C@@H]5c5cc(F)ccc5F)nc34)[nH]c2c1F` [Compound 127, (R)-5-(2-(2,5-difluorophenyl)pyrrolidin-1-yl)-3-(7-fluoro-6-methoxy-1H-benzo[d]imidazol-2-yl)pyrazolo[1,5-a]pyrimidine], for which the concentration for half-maximal inhibition (IC50) is ≤ 0.01 µM.

As for `OCc1cc2nc(-c3cnn4ccc(N5CCC[C@@H]5c5cc(F)ccc5F)nc34)[nH]c2cn1` [Compound 135, (R)-(2-(5-(2-(2,5-difluorophenyl)pyrrolidin-1-yl)pyrazolo[1,5-a]pyrimidin-3-yl)-3H-imidazo[4,5-c]pyridin-6-yl)methanol], the IC50 is ≤ 0.01 µM.

Staying with this assay, now noted: numeric values; read-out: Trk A Kinase IC50.
Regarding `OCC(F)c1nnc(-c2cnn3ccc(N4CCC[C@@H]4c4cc(F)ccc4F)nc23)[nH]1` (stereo partly drawn) [Compound 52, 2-(5-(5-((R)-2-(2,5-difluorophenyl)pyrrolidin-1-yl)pyrazolo[1,5-a]pyrimidin-3-yl)-4H-1,2,4-triazol-3-yl)-2-fluoroethan-1-ol], the half-inhibitory concentration (IC50) amounted to 0.00166 µM.

As to `Fc1ccc(F)c([C@H]2CCCN2c2ccn3ncc(-c4nc5cc(F)cc(F)c5o4)c3n2)c1` [Compound 111, (R)-2-(5-(2-(2,5-difluorophenyl)pyrrolidin-1-yl)pyrazolo[1,5-a]pyrimidin-3-yl)-5,7-difluorobenzo[d]oxazole], the IC50 was 0.0053 µM.

Turning to `Fc1ccc(F)c([C@H]2CCCN2c2ccn3ncc(-c4nnc(-c5ccc6ncccc6c5)[nH]4)c3n2)c1` [Compound 56, (R)-6-(5-(5-(2-(2,5-difluorophenyl)pyrrolidin-1-yl)pyrazolo[1,5-a]pyrimidin-3-yl)-4H-1,2,4-triazol-3-yl)quinoline], the IC50 is 0.0012 µM.

On to `Fc1ccc(F)c([C@H]2CCCN2c2ccn3ncc(-c4nc5cc(F)c(F)cc5[nH]4)c3n2)c1` [Compound 136, (R)-3-(5,6-difluoro-1H-benzo[d]imidazol-2-yl)-5-(2-(2,5-difluorophenyl)pyrrolidin-1-yl)pyrazolo[1,5-a]pyrimidine], for which the IC50 was 0.0019 µM.

On to `Fc1ccc(F)c([C@H]2CCCN2c2ccn3ncc(-c4nc5cc(F)cc(Cl)c5[nH]4)c3n2)c1` [Compound 98, (R)-3-(7-chloro-5-fluoro-1H-benzo[d]imidazol-2-yl)-5-(2-(2,5-difluorophenyl)pyrrolidin-1-yl)pyrazolo[1,5-a]pyrimidine], for which the IC50 came to 0.0088 µM.

Take `Fc1ccc(F)c([C@H]2CCCN2c2ccn3ncc(-c4nc5cccc(OC(F)(F)F)c5[nH]4)c3n2)c1` [Compound 113, (R)-5-(2-(2,5-difluorophenyl)pyrrolidin-1-yl)-3-(7-(trifluoromethoxy)-1H-benzo[d]imidazol-2-yl)pyrazolo[1,5-a]pyrimidine]: the 50% inhibitory concentration (IC50) came out at 0.0067 µM.

As for `Nc1ncnc2nc(-c3cnn4ccc(N5CCC[C@@H]5c5cc(F)ccc5F)nc34)[nH]c12` [Compound 87, (R)-8-(5-(2-(2,5-difluorophenyl)pyrrolidin-1-yl)pyrazolo[1,5-a]pyrimidin-3-yl)-7H-purin-6-amine], the half-maximal inhibitory concentration (IC50) was 0.00073 µM.

Consider `CC(C)(C)OC(=O)N1CCC1c1nnc(-c2cnn3ccc(N4CCC[C@@H]4c4cc(F)ccc4F)nc23)[nH]1` (stereo partly drawn) [Compound 20, tert-butyl 2-(5-(5-((R)-2-(2,5-difluorophenyl)pyrrolidin-1-yl)pyrazolo[1,5-a]pyrimidin-3-yl)-4H-1,2,4-triazol-3-yl)azetidine-1-carboxylate], for which the IC50 stood at 0.047 µM.
